According to patent US20150038545A1, “HYDROXYPHENYL PYRROLE COMPOUNDS CONTAINING AN HYDROXAMIC ACID AS HDAC INHIBITORS AND MEDICINAL APPLICATIONS THEREOF” (UNIVERSIDAD DEL PAÍS VASCO, priority 2011, published 2015):

Assays:
Human HDAC8 = target: T1, Human HDAC8 (Homo sapiens, UniProt Q9BY41); test: In vitro HDAC8 inhibition, fluorogenic peptide assay; type: biochemical; settings: for IC50: read-out: IC50 (nM) of enzyme activity HDAC8
T1 construct: Full length, MW=42 kDa, expressed in an E. coli expression system; purchased BioMol SE-145; host or cells: E. coli
T1 sequence (Q9BY41 1-377): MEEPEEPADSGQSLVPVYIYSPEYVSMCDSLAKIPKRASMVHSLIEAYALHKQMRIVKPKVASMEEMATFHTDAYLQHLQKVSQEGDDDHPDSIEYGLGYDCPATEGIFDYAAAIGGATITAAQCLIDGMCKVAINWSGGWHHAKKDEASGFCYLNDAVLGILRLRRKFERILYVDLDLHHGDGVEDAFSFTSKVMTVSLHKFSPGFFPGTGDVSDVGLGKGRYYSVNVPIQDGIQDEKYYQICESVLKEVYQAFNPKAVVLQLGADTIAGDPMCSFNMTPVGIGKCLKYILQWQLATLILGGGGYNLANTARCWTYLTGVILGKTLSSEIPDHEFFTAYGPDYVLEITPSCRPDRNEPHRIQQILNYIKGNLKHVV
Method: (§1) All HDAC assays were performed using acetylated AMC-labeled peptide substrate: • Substrate for isoforms HDAC1, 2, 3, 4, 5, 6, 7, 9, 10, 11 and HeLa nuclear extract assays: Acetylated fluorogenic peptide from p53 residues 379-382 (RHKKAc) (BioMol. Cat. # KI-104). • Substrate for HDAC8 assays: Acetylated fluorogenic peptide from p53 residues 379-382 (RHKAcKAc) (BioMol. Cat. # KI-178).
(§2) Enzymes: • HDAC1 assay: 75 nM Human HDAC1 (GenBank Accession No. NM_004964): Full length with C-terminal GST tag, MW=79.9 kDa, expressed by baculovirus expression system in Sf9 cells (BioMol. Cat. # SE-456). • HDAC2 assay: 5 nM Human HDAC2 (GenBank Accession No. Q92769): Full length with C-terminal His tag, MW=60 kDa, expressed by baculovirus expression system in Sf9 cells (BioMol. Cat. # SE-500). • HDAC3 assay: 2.3 nM Human HDAC3/NcoR2 (GenBank Accession No. NM_003883 for HDAC3, GenBank Accession No.NM_006312 for NcoR2): Complex of human HDAC3, full length with C-terminal His tag, MW=49.7 kDa, and human NCOR2, N-terminal GST tag, MW=39 kDa, co-expressed in baculovirus expression system (BioMol. Cat. # SE-507). • HDAC4 assay: 266 nM Human HDAC4 (GenBank Accession No. NM_006037): Amino acids 627-1085 with N-terminal GST tag, MW=75.2 kDa, expressed in baculovirus expression system (BioMol, Hamburg, Germany). • HDAC5 assay: 588 nM Human HDAC5 (GenBank Accession No. NM_001015053): Full length with Nterminal GST tag, MW=150 kDa, expressed by baculovirus expression system in Sf9 cells (BioMol, Hamburg, Germany). • HDAC6 assay: 13 nM Human HDAC6 (GenBank Accession No. BC069243): Full length with N-terminal GST tag, MW=159 kDa, expressed by baculovirus expression system in Sf9 cells (BioMol. Cat. # SE-508). • HDAC7 assay: 962 nM Human HDAC7 (GenBank Accession No. AY302468): Amino acids 518-end with N-terminal GST tag, MW=78 kDa, expressed in baculovirus expression system (BioMol, Hamburg, Germany). • HDAC8 assay: 119 nM Human HDAC8 (GenBank Accession No. NM018486): Full length, MW=42 kDa, expressed in an E. coli expression system (BioMol. Cat. # SE-145). • HDAC9 assay: 986 nM Human HDAC9 (GenBank Accession No. NM178423): Amino acids 604-1066 with C-terminal His tag, MW=50.7 kDa, expressed in baculovirus expression system (BioMol, Hamburg, Germany). • HDAC10 assay: 781 nM Human HDAC10 (GenBank Accession No. NM_032019): Amino acids 1-631 with Nterminal GST tag, MW=96 kDa, expressed by baculovirus expression system in Sf9 cells (BioMol. Cat. # SE-559). • HDAC11 assay: 781 nM Human HDAC11 (GenBank Accession No. NM_BC009676) with N-terminal GST tag, MW=66 kDa, expressed in baculovirus expression system (BioMol. Cat. # SE-560). • HeLaNuclear Extract assay: 25 ng/μl Nuclear Extract from HeLa Cells: Prepared by high salt extraction of HeLa nuclei (human cervical cancer cell line), this extract is a rich source of HDAC activity (BioMol. Cat. # KI-140).
(§3) The reactions were carried out in a 96-well microplate for fluorometry in a 50 μl reaction volume. After the deacetylation reaction, Fluor-de-Lys-Developer (BioMol Cat. # KI-105) was added to each well to digest the deacetylated substrate, thus producing the fluorescent signal. The reaction was allowed to develop for 45 minutes at 30° C. with 5% CO2; then the fluorescent signal was measured with an excitation wavelength at 360 nm and an emission wavelength at 460 nm in a microplate-reading fluorometer (GeminiXS; Molecular Devices, Sunnyvale, Calif.). […] All experiments were performed in triplicate. IC50 was calculated by fitting the experimental data to a dose-response curve. DMSO was used as negative control; Trichostatin A (Biomol Cat. # GR-309) was used as positive control inhibitor.

[1] = system: T2, Nuclear Extract from HeLa Cells; test: HeLa nuclear extract HDAC inhibition assay; type: biochemical, Human; settings: HeLa cell line nuclear extract
T2 construct: 25 ng/μl Nuclear Extract from HeLa Cells: Prepared by high salt extraction of HeLa nuclei (human cervical cancer cell line)
Method: as §1, §2, §3

Human HDAC3/NcoR2 = target: T3, Human HDAC3/NcoR2 (Homo sapiens, UniProt O15379); test: In vitro HDAC3 inhibition, fluorogenic peptide assay; type: biochemical; settings: for IC50: read-out: IC50 (nM) of enzyme activity HDAC3
T3 construct: Complex of human HDAC3, full length with C-terminal His tag, MW=49.7 kDa; His (C); purchased BioMol SE-507
Method: as §1, §2, §3

T3 sequence (O15379 whole entry): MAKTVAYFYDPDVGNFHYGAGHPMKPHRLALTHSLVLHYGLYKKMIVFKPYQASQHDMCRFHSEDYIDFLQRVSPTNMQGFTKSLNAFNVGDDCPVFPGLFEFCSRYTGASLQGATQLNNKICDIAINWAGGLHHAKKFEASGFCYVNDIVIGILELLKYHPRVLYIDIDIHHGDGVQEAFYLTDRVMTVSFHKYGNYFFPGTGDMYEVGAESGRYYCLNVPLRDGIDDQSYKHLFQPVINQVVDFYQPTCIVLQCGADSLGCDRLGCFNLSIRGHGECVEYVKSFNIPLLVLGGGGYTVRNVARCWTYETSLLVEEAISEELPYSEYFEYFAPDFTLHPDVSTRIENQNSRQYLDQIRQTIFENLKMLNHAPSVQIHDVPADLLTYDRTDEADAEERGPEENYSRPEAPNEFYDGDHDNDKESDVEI
T3 sequence (Q9Y618 395-489 partner limits assumed): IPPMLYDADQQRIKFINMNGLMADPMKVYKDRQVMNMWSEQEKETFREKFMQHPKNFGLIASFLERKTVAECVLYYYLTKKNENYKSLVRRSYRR

| IC50 (Human HDAC8) [nM] | IC50 [1] [nM] | IC50 (Human HDAC3/NcoR2) [nM] | Selectivity against HDAC6 (IC50 HDACx/IC50 HDAC6) HDAC8 (Human HDAC8) | Selectivity against HDAC6 (IC50 HDACx/IC50 HDAC6) HDAC3 (Human HDAC3/NcoR2) | SMILES |
| --- | --- | --- | --- | --- | --- |
| 591 | 33 | 341 |  |  | O=C(CCCCCNC(=O)c1[nH]c(-c2ccoc2)cc1-c1ccc(O)cc1)NO [Example 4, 5-(3-furyl)-N-(5-(Hydroxycarbamoyl)pentyl)-3-(4-hydroxy-phenyl)-1H-pyrrole-2-carboxamide] |
| 192 | 61 | 572 | 9.6 | 28.6 | COc1ccc(-c2cc(-c3ccccc3)[nH]c2C(=O)NCCCCCC(=O)NO)cc1 [Compound A, N-[6-(hydroxyamino)-6-oxohexyl]-3-(4-methoxyphenyl)-5-phenyl-1H-pyrrole-2-carboxamide, reference compound] |
| 975 | 46 | 441 |  |  | O=C(CCCCCNC(=O)c1[nH]c(-c2ccsc2)cc1-c1ccc(O)cc1)NO [Example 3, N-(5-(hydroxycarbamoyl)pentyl)-3-(4-hydroxyphenyl)-5-(3-thienyl)-1H-pyrrole-2-carboxamide] |
| 162 | 18 | 250 | 21.3 | 32.9 | O=C(CCCCCNC(=O)c1[nH]c(-c2ccc(O)cc2)cc1-c1ccccc1)NO [Example 2, N-(6-(hydroxyamino)-6-oxohexyl)-5-(4-hydroxyphenyl)-3-phenyl-1H-pyrrole-2-carboxamide] |
| 767 | 31 | 437 | 54.8 | 31.2 | O=C(CCCCCNC(=O)c1[nH]c(-c2ccccc2)cc1-c1ccc(O)cc1)NO [Example 1, N-(6-(hydroxyamino)-6-oxohexyl)-3-(4-hydroxyphenyl)-5-phenyl-1H-pyrrole-2-carboxamide] |
| 174 | 27 | 415 | 5.4 | 13.0 | COc1ccc(-c2cc(-c3ccccc3)c(C(=O)NCCCCCC(=O)NO)[nH]2)cc1 [Compound B, N-[6-(hydroxyamino)-6-oxohexyl]-5-(4-methoxyphenyl)-3-phenyl-1H-pyrrole-2-carboxamide, reference compound] |
| 104 | 7.3 | 71 |  |  | O=C(CCCCCNC(=O)c1[nH]c(-c2ccc(O)cc2)cc1-c1ccsc1)NO [Example 6, N-(5-(hydroxycarbamoyl)pentyl)-5-(4-hydroxyphenyl)-3-(3-thienyl)-1H-pyrrole-2-carboxamide] |
| 278 | 1.6 | 20 |  |  | O=C(CCCCCNC(=O)c1[nH]c(-c2ccc(O)cc2)cc1-c1ccoc1)NO [Example 5, 3-(3-furyl)-N-(5-(hydroxycarbamoyl)pentyl)-5-(4-hydroxy-phenyl)-1H-pyrrole-2-carboxamide] |
